Results on four compounds are retold here after ChEMBL document CHEMBL1201862, “PubChem BioAssay data set” (2004).

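Compound exposure: 48 hours, 5 concentrations, 96-well plates. GI50 is the concentration that inhibits growth by half.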 Active and inactive are the calls of the source. Cut-off read from the data, not from the text of the source: active = GI50 up to about 1.1 µM and inactive = higher. Bounds are passed on as bounds.

Some test systems named below: MDA-MB-231; K562; KM12; UO-31; NCI-H522; RXF 393; SK-MEL-28; HL-60; Hs-578T; PC-3; 786-0; NCI/ADR-RES; SF-539; BT-549; MOLT-4; IGROV-1; HOP-92; A549; SNB-75; MDA-N.
Common to all, as to assay: NCI-60 cell line screen, 48 h

Turning to `CCOc1ccc(/N=N/c2ccc(-c3ccc(/N=N/c4c(O)ccc5cc(S(=O)(=O)O)cc(S(=O)(=O)O)c45)cc3)cc2)cc1`, the GI50 in the assay on MDA-MB-231 is > 100 µM (inactive); with K562, > 100 µM (inactive); in the assay on KM12, > 100 µM (inactive); in the assay with UO-31, > 100 µM (inactive); with NCI-H522, 63.2 µM (inactive); in the assay with RXF 393, > 100 µM (inactive). In addition, the GI50 with SK-MEL-28, in the assay with HL-60, in the assay with Hs-578T, with PC-3, in the assay on 786-0 and with NCI/ADR-RES was > 100 µM (inactive) in each case. In addition, the GI50 in the assay with SF-539, with BT-549, in the assay on MOLT-4, in the assay on IGROV-1, with HOP-92 and with A549 was > 100 µM (inactive) throughout.
Take `COc1cc(/C=C/C=C2\CC(C)C/C(=C\C=C\c3ccc(O)c(OC)c3)C2=O)ccc1O` (stereo not drawn): the GI50 in the assay with MDA-MB-231 was 17 µM (inactive); in the assay on K562, 3.93 µM (inactive); with KM12, 31.7 µM (inactive); in the assay on UO-31 it was 5.06 µM (inactive); in the assay with NCI-H522, 0.522 µM (active); in the assay on RXF 393, 4.55 µM (inactive). For the same compound, the GI50 with SK-MEL-28 is 6.92 µM (inactive); in the assay on HL-60, 7.35 µM (inactive); with Hs-578T, 10 µM (inactive); with PC-3, 11.3 µM (inactive); in the assay on 786-0, 12.4 µM (inactive); with NCI/ADR-RES, 25.1 µM (inactive). For the same compound, the GI50 in the assay with SF-539 was 22.1 µM (inactive); with BT-549, 8.61 µM (inactive); in the assay on MOLT-4 it was 0.964 µM (active); with IGROV-1 it was 8.41 µM (inactive); in the assay on HOP-92, 7.23 µM (inactive); in the assay with SNB-75, 15.1 µM (inactive). In the assay with A549, the GI50 was 5.11 µM (inactive).
On to `O=C(NN1C(=O)CSC1c1ccco1)c1ccncc1` (stereo not drawn), for which the GI50 with MDA-MB-231, in the assay on K562, with KM12, in the assay with UO-31, in the assay with NCI-H522 and in the assay with RXF 393 was > 100 µM (inactive) in each case. Besides, the GI50 in the assay with SK-MEL-28, with HL-60, in the assay with MDA-N, with PC-3, in the assay on 786-0 and in the assay with NCI/ADR-RES was > 100 µM (inactive) each time. Moreover, the GI50 in the assay on SF-539, with BT-549, with MOLT-4, with IGROV-1, with HOP-92 and in the assay on A549 was > 100 µM (inactive) in each case.
As to `Sc1nnc(-c2ccccc2Nc2ccccc2-c2nnc(S)n2-c2ccccc2)n1-c1ccccc1`, the GI50 with MDA-MB-231 is 22.7 µM (inactive); in the assay on K562, 52.7 µM (inactive); with KM12 it was 51.6 µM (inactive); in the assay on UO-31, 44.6 µM (inactive); in the assay with NCI-H522, 26.7 µM (inactive); with RXF 393 it was 35.6 µM (inactive). Further, the GI50 was 19.5 µM (inactive) with SK-MEL-28; 22.8 µM (inactive) with HL-60; 32.1 µM (inactive) in the assay with MDA-N; 60.3 µM (inactive) with PC-3; 45 µM (inactive) in the assay with 786-0; 84.1 µM (inactive) in the assay on NCI/ADR-RES. Besides, the GI50 with SF-539 is 28.8 µM (inactive); in the assay on BT-549 it was 28.1 µM (inactive); in the assay with MOLT-4 it was 27.2 µM (inactive); in the assay on IGROV-1, 16.4 µM (inactive); in the assay with HOP-92, 17.8 µM (inactive); in the assay with SNB-75, 37.5 µM (inactive).
